The numbers were not newly measured in patent US6156340A, “Orally administrable time release drug containing products” (Duquesne University of the Holy Ghost, priority 1996, dated 2000), which cites them from elsewhere.

Test in data set [1]: not given
This is another data set of the same source.

The conditions of data set [2]: repeated oral administration, long term therapy.

Turning to `O=C(O)Cc1ccccc1Nc1c(Cl)cccc1Cl` [diclofenac sodium], the “absorption” value (following oral administration) is on record as “completely absorbed”. Also, where the note is “in vivo”, the “metabolism” value was “extensive metabolism”. Further, the “elimination half-life in plasma” value (plasma) is “relatively short elimination half-life in plasma”. In addition, the “water solubility” value in data set [1] was “high water solubility”. For the same compound, the “side effects” value in data set [2] was “frequently causes gastrointestinal disturbances and may cause kidney failure”.
